Results taken from article PMC12751057, “The energy landscape of N-ribosidic bond cleavage catalysed by 2′-deoxynucleoside 5′-phosphate N-hydrolase 1” (Biochemical Journal, 2025).
Numbering of substitutions follows the chain as printed.

Experiments:
[1] = target: T1, 2′-deoxynucleoside 5′-phosphate N-hydrolase 1 (HsDNPH1) (Homo sapiens, UniProt O43598, E55Q); assay: stopped-flow burst and single-turnover kinetics of the purified variant (turnover, k burst); format: biochemical
T1 construct: gene DNPH1
T1 sequence (O43598 2-174 E55Q): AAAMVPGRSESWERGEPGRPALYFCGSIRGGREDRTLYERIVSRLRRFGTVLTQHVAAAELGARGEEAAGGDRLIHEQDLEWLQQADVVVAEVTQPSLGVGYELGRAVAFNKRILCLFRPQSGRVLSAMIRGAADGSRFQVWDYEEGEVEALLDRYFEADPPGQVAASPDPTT

[2] = target: T2, 2′-deoxynucleoside 5′-phosphate N-hydrolase 1 (HsDNPH1) (Homo sapiens, UniProt O43598); assay: single-turnover stopped-flow UV kinetics, k2/k1 ratio from global fit; steady-state hydrolysis; format: biochemical
T2 construct: gene DNPH1
T2 sequence (O43598 2-174): T1 sequence (O43598 2-174 E55Q) with Q54E

[3] = target: T3, 2′-deoxynucleoside 5′-phosphate N-hydrolase 1 (HsDNPH1) (Homo sapiens, UniProt O43598, E104Q); assay: ITC; also stopped-flow UV binding kinetics (KD app […]) and differential UV spectroscopy
T3 construct: gene DNPH1
T3 sequence (O43598 2-174 E104Q): T1 sequence (O43598 2-174 E55Q) with Q54E, E103Q

[4] = target: T2, 2′-deoxynucleoside 5′-phosphate N-hydrolase 1 (HsDNPH1); assay: steady-state UV inhibition assay, competitive fit; format: biochemical

Structure (SMILES) | rate constant [1] | Kd [2] | Kd [3] | Ki [4]
O=c1[nH]c(=O)n([C@H]2C[C@H](O)[C@@H](COP(=O)(O)O)O2)cc1CO [5hmdUMP, 5-hydroxymethyl-2′-deoxyuridine 5′-monophosphate] | 0.270 ± 0.001 s⁻¹ | 2.36 µM | 1.6 ± 0.4 µM | 
O=P(O)(O)OC[C@H]1OC(O)[C@H](O)[C@@H]1O (stereo partly shown) [ribose 5-phosphate] |  |  |  | 6900 ± 800 µM
